Data taken from patent publication US12697277B2, “Materials and methods for mitigating the presence of nitrosamines in packaging using an active agent” (CSP TECHNOLOGIES, INC., priority 2024, dated 2026).

Tests used:
[1] = NO2 adsorption by raw active and film, fixed bed reactor; assay type: physicochemical; details: raw active, 250 mg, 22° C.; for NO2 Adsorbed Amount: 505 ppm of NO2
Protocol: (§1) NO and NO2 adsorption experiments were conducted within a fixed bed reactor at 22° C. In each experimental run, 250 mg of the sample was meticulously deposited onto a fused silica frit positioned within a vertical quartz reactor, which boasted an internal diameter of 6 mm. Prior to each experiment, the system underwent a thorough purge using nitrogen (N) to eliminate any residual gases and ensure a clean starting point. Following the purge, calibration procedures were meticulously carried out to guarantee the accuracy of the concentration measurements. This involved precisely calibrating the ROSEMOUNT NGA 2000 detector to establish a reliable baseline for the subsequent experiments. […] Throughout the experiments, the concentrations of outlet gases, namely NO and NO2, were continuously monitored. This real-time analysis was facilitated by the highly sensitive ROSEMOUNT NGA 2000 detector (St. Louis, MO, USA). To account for any background signals or potential interferences, a blank experiment was conducted using an empty reactor. The obtained results from this blank experiment were subtracted from the measurements of the sample, ensuring that the recorded concentrations accurately reflected the adsorption behavior of NO2 by the sample. This meticulous approach enhances the reliability and precision of the experimental findings.

[2] = Effect of active agent (sachet or film) on nitrite in GC vial headspace, cyclohexene derivative method; assay type: physicochemical; details: 50 mg active in sachet hanging in GC vial headspace over sulfuric acid + potassium nitrite; 24 hours at 60° C.
Protocol: A 1 inch×0.5 inch tea bag sachet containing 50 mg±2 mg of a potential active agent, or a 1 cm^2 film was placed hanging in a GC vial headspace. […] 1 mL of 1M sulfuric acid solution and 1 mL of potassium nitrite solution (1 g/10 mL) was placed into the GC vial. The film or sachet was placed suspended inside the GC vial, and sealed, and aged for 24 hours at 60° C. GC-MS was conducted on the headspace using the derivative method. The methodology is based on a chemically derivative method that reacts all available NOx or nitrite directly into a measurable compound (cyclohexene) using acidified sodium cyclamate. The reaction is shown below:
It will be understood that both the nitrite anion (NO2^−) and […] (HNO2), with the relative amounts being determined by solution pH, will be quantified by this method, and gaseous NOx can also be quantified, due to its equilibrium with aqueous phase species. For simplicity, results of this test may be described as measuring the amount of nitrite.

[3] = Film and sachet comparison in monolayer bottles: nitrite; assay type: physicochemical; details: raw active in sachet in monolayer bottle; 60° C., 40% RH, 6 days
Protocol: For raw active samples, the appropriate mass was weighed as shown in Table 20 and was placed in a sachet which was closed. Films were cut to 120 mm×65 mm. Film thickness was from about 0.3 mm to about 1.2 mm.
A 20 mL scintillation vial was placed in each bottle. 3.5 mL of potassium nitrite and 3.5 mL of sulfuric acid were added to the scintillation vial. GC-MS was conducted on the headspace using the cyclohexene derivative method for nitrite. Samples were aged at 60° C. and 40% RH for 6 days.

[4] = NO adsorption by raw active and film, fixed bed reactor; assay type: physicochemical; details: raw active, 250 mg, 22° C.
Protocol: as §1

[5] = Maximum daily dose (MDD) and acceptable intake (AI) for each nitrosamine formed by each drug
[6] = FDA acceptable intake limit; cited from earlier work
[7] = Effect of raw active on nitrite, headspace GC (modified FDA protocol); assay type: physicochemical; details: raw active 50 mg in GC vial with sulfuric acid + potassium nitrite, 24 hours at 60° C., estimated ppm of nitrous acid in headspace
Protocol: The active sachet was placed inside the GC vial and sealed and aged for 24 hours at 60° C. Controls only contained the liquid. GC was conducted on the headspace using a modified version of the FDA protocol for GC-MS/MS to detect nitrite. […] Food & Drug Administration (FDA), Apr. 29, 2019, published online.

[8] = Raw active and film studies with propranolol: Nitroso-propranolol (NPO) by LC-MS; assay type: physicochemical; details: raw active 5 g in pouch in 250 ml bottle with 1 g propranolol; 50° C./75% RH, 4 weeks
Protocol: Raw active or film with active were tested in 250 ml bottles with 1 g of propranolol (beads), to measure formation of Nitroso-propranolol (NPO). When present, the film (2 pieces of A2×2 inches) was wrapped inside bottle(s). Raw active (5 g) was placed in a pouch inside bottle(s).
Humidity was provided by vials containing a salt solution: ASAPprime™ vials (FreeThink Technologies, Branford CT, USA). A screw cap was used, with no induction seal.
NPO was directly measured by LC-MS (liquid chromatography-mass spectroscopy). The detection limit is approximately 1% of the results reported.

[9] = acceptable intake of the nitrosamine per day; cited from earlier work

With Vitamin E the “NO2 Adsorbed Amount” value [1] was 4.95 mg/g, the “Nitrite (% decrease)” value [2] was 89.8% and the “Nitrite (% decrease)” value [3] was 31.6%. For the same compound, the “NO Adsorbed Amount” value [4] was 0.16 mg/g.

In the case of `O=C([O-])O.[Na+]` [Sodium Bicarbonate], the “NO2 Adsorbed Amount” value [1] is reported as 2.24 mg/g, the “Nitrite (% decrease)” value [2] is reported as 57.7% and the “Nitrite (% decrease)” value [3] is reported as 72.8%. The “NO Adsorbed Amount” value [4] was 0.14 mg/g.

For `O=NN1CCC(c2ccccc2)CC1` [1-nitroso-4-phenylpiperdine], the “AI (ppm)” value ([5]; 4-Phenylpiperdine (CPCA Calculated), MDD (ketophrofen) 200 mg) was 2 ppm, the “AI (ppm)” value ([5]; 4-Phenylpiperdine (CPCA Calculated), MDD (meperide) 600 mg) was 0.67 ppm and the “AI (ppm)” value ([5]; 4-Phenylpiperdine (CPCA Calculated), MDD (pethidine) 400 mg) was 1 ppm. The “average AI” value ([5]; average of the three MDD-based values) was 1.2 ppm.

In the case of `COc1cc(/C=C/C(=O)O)ccc1O` [Ferulic Acid], the “NO2 Adsorbed Amount” value [1] is reported as 3.27 mg/g and the “Nitrite (% decrease)” value [2] is reported as 61.7%.

For `OC[C@H]1O[C@@H]2O[C@H]3[C@H](O)[C@@H](O)[C@@H](O[C@H]4[C@H](O)[C@@H](O)[C@@H](O[C@H]5[C@H](O)[C@@H](O)[C@@H](O[C@H]6[C@H](O)[C@@H](O)[C@@H](O[C@H]7[C@H](O)[C@@H](O)[C@@H](O[C@H]8[C@H](O)[C@@H](O)[C@@H](O[C@H]1[C@H](O)[C@H]2O)O[C@@H]8CO)O[C@@H]7CO)O[C@@H]6CO)O[C@@H]5CO)O[C@@H]4CO)O[C@@H]3CO` [Beta Cyclodextrin Powder, Beta Cyclodextrin], the “NO2 Adsorbed Amount” value [1] was 2.96 mg/g and the “Nitrite (% decrease)” value [2] was 25.6%.

For `CC1=C(/C=C/C(C)=C/C=C/C(C)=C/C=C/C=C(C)/C=C/C=C(C)/C=C/C2=C(C)C(=O)[C@@H](O)CC2(C)C)C(C)(C)C[C@H](O)C1=O` [Astaxanthin], the “Nitrite (% decrease)” value [2] was 35.0%.

With `CC(C)=CCC/C(C)=C/C=C/C(C)=C/C=C/C(C)=C/C=C/C=C(C)/C=C/C=C(C)/C=C/C=C(\C)CCC=C(C)C` [Lycopene] the “Nitrite (% decrease)” value [2] was 23.7%.

With `O=C([O-])[O-].[Mg+2]` [Magnesium Carbonate] the “NO2 Adsorbed Amount” value [1] was 8.03 mg/g and the “Nitrite (% decrease)” value [2] was 33.9%.

In the case of `Cl` [Hydrochloric Acid], the “Nitrite (% decrease)” value [2] is reported as 14.4%.

In the case of `O=C(O)/C=C/c1ccc(O)c(O)c1` [Caffeic Acid], the “Nitrite (% decrease)” value [2] is reported as 31.6%.

In the case of `CCN(N=O)C(C)C` [NIPEA], the “AI Limit” value [6] is given as 26.5 ng/day.

For `O=C1O[C@H]([C@@H](O)CO)C(O)=C1O` [Ascorbic Acid, L-ascorbic acid], the “Nitrite (ppm)” value [7] was 0.08 ppm, the “Nitrite (ppm)” value ([7]; listed as Ascorbic acid) was “most effective raw active at decreasing the level of nitrite” and the “NO2 Adsorbed Amount” value [1] was 2.50 mg/g. For the same compound, the “Nitrite (% decrease)” value [2] was 23.7%, the “NPO (% Decrease)” value [8] was 9% and the “Nitrite (% decrease)” value [3] was −111.1%. The “NO Adsorbed Amount” value [4] was 0.14 mg/g.

For `N[C@@H](CS)C(=O)O` [L-cysteine], the “NPO (% Decrease)” value [8] was 2%.

For `CC(C)N(N=O)C(C)C` [NDIPA, N-nitrosodi-2-propylamine], the “AI Limit” value [6] is given as 26.5 ng/day.

In the case of `CCN(CC)N=O` [NDEA, N-nitrosodiethylamine], the “AI Limit” value [6] is given as 26.5 ng/day.

In the case of `O=C1O[C@H]([C@@H](O)CO)C([O-])=C1O.[Na+]` [Sodium Ascorbate], the “NPO (% Decrease)” value [8] is reported as 9%.

In the case of `Nc1ccc(C(=O)O)cc1` [4-aminobenzonic acid], the “NPO (% Decrease)” value [8] is reported as 7%.

With Vitamin A the “Nitrite (% decrease)” value [2] was 11.3%.

For `O=S(=O)([O-])[O-].[Ca+2]` [Calcium Sulfate], the “Nitrite (% decrease)” value [2] was 22.2%.

In the case of `CN(CCCC(=O)O)N=O` [NMBA], the “AI Limit” value [6] is listed as 96 ng/day.

For `O=C([O-])[O-].[Ca+2]` [Calcium Carbonate], the “NO2 Adsorbed Amount” value [1] was 7.75 mg/g, the “NO2 Adsorbed Amount (mg/g)” value ([1]; 505 ppm of NO2, listed as calcium carbonate) was “most effective NO2 adsorber from amongst the raw actives tested” and the “Nitrite (% decrease)” value [2] was 46.9%. For the same compound, the “NO Adsorbed Amount” value [4] was 0.15 mg/g.

In the case of Sodium Alginate, the “Nitrite (% decrease)” value [2] is reported as 27.7%.

In the case of `[O]=[Fe][O][Fe]=[O]` [Ferric Oxide], the “Nitrite (% decrease)” value [2] is reported as 14.3%.

In the case of `[Cl-].[Na+]` [Sodium Chloride], the “NO2 Adsorbed Amount” value [1] is reported as 2.00 mg/g, the “Nitrite (% decrease)” value [2] is reported as 86.8% and the “Nitrite (% decrease)” value [3] is reported as 99.9%. For the same compound, the “NO Adsorbed Amount” value [4] was 0.34 mg/g.

In the case of `CN(C)N=O` [NDMA, N-nitrosodimethylamine], the “AI Limit” value [6] is given as 96 ng/day, the “AI (ppm)” value ([5]; Ranitidine, MDD 320 mg) is given as 0.3 ppm and the AI /day [9] is given as 96 ng.

In the case of `CCCOC(=O)c1cc(O)c(O)c(O)c1` [Propyl Gallate], the “Nitrite (% decrease)” value [2] is reported as 3.2%.

For `[Cl-].[Cl-].[Mg+2]` [Magnesium Chloride], the “Nitrite (% decrease)” value [2] was −15.7%.

With `CC1=C(/C=C/C(C)=C/C=C/C(C)=C/C=C/C=C(C)/C=C/C=C(C)/C=C/C2=C(C)C[C@@H](O)CC2(C)C)C(C)(C)C[C@H](O)C1` [Zeaxanthin] the “Nitrite (% decrease)” value [2] was 26.6%.

For `CN(CC(O)c1cccc(O)c1)N=O` (stereo not drawn) [1-nitroso-phenylephrine], the “AI (ppm)” value ([5]; Phenylephrine, MDD 60 mg) is listed as 1.67 ppm and the AI /day [9] is listed as 100 ng.

With `COC1=C(OC)C(=O)C(C/C=C(\C)CC/C=C(\C)CC/C=C(\C)CC/C=C(\C)CC/C=C(\C)CC/C=C(\C)CC/C=C(\C)CC/C=C(\C)CC/C=C(\C)CCC=C(C)C)=C(C)C1=O` [Coenzyme Q10] the “Nitrite (% decrease)” value [2] was −7.8%.
